# Marks after values point to notes of the source that are not given here.
# Tested on: SK-N-BE(2)C xenografts
# Test: Ex vivo biodistribution (γ-counter), mice bearing SK-N-BE(2)C xenografts
# Assay type: in vivo
# Conditions: for ^18F-mFBG biodistribution 4 h p.i., Blood / ^18F-mFBG biodistribution 4 h p.i., Bone / ^18F-mFBG biodistribution 4 h p.i., Brown adipose / ^18F-mFBG biodistribution 4 h p.i., Heart / ^18F-mFBG biodistribution 4 h p.i., Kidney / ^18F-mFBG biodistribution 4 h p.i., Liver / ^18F-mFBG biodistribution 4 h p.i., Lungs / ^18F-mFBG biodistribution 4 h p.i., Muscle / ^18F-mFBG biodistribution 4 h p.i., Pancreas / ^18F-mFBG biodistribution 4 h p.i., Small intestine / ^18F-mFBG biodistribution 4 h p.i., Spleen / ^18F-mFBG biodistribution 4 h p.i., Tumour / ^18F-mFBG biodistribution 4 h p.i., Tumour:blood / ^18F-mFBG biodistribution 4 h p.i., Tumour:muscle: SK-N-BE(2)C
# Experimental: All studies were conducted in compliance with licenses issued under the UK Animals (Scientific Procedures) Act 1986 and approved by the Institute of Cancer Research Animal Welfare and Ethical Review Body (AWERB) according to the United Kingdom National Cancer Research Institute Guidelines for Animal Welfare in Cancer Research (project license PCC916B22, Animals in Science Regulation Unit, Home Office Science, London, UK)[65]. Female Nu(NCr)-Foxn1nu mice (5–7 weeks; 20–22 g) obtained from an in-house breeding colony were used in the studies. Animals were housed in a temperature-controlled facility with 12 h on–12 h off light cycle and provided water and laboratory rodent food ad libitum. Subcutaneous xenografts were generated by injection of either Kelly (5 × 10^6/0.1 mL PBS/Matrigel 30% v/v; BD Matrigel Matrix, BD Bioscience, San Jose, California, US) or SK-N-BE(2)C (1 × 10^6/0.1 mL PBS/Matrigel) into the lower flank. For the treatment studies, AZD2014 stock solution in DMSO was diluted in PEG400 to a final concentration of 2 mg/mL (10% DMSO maximum). When tumours reached ~ 100 mm^3 (calliper measurements using formula: Volume = (Width(2) × Length)/2), mice were treated daily, for a total of either 1, 3 or 7 days, by oral gavage with AZD2014 (20 or 25 mg/kg/day) or vehicle control. Mice were monitored daily for body weight or other adverse effects.
# When the tumours reached approximately 100–200 mm^3, mice were anaesthetised with an isoflurane/O2 mixture (1.5–2.0% v/v) and intravenously injected with either ^18F-mFBG (~ 7.5 MBq) or ^123I-mIBG (~ 20 MBq). Mice were then imaged using an Albira PET/SPECT/CT scanner (Bruker, Coventry, UK). Whole body PET static images were acquired after 1 and 4 h post-injection (p.i.) for 10 min with an energy window of 358 to 664 keV followed by CT acquisition. Acquisition, reconstruction and image analysis were performed as described previously. Following the final scan, the mice were sacrificed and the major organs were excised, weighed and their associated radioactivity was measured using a γ-counter. Biodistribution and image quantification were expressed as a percentage of injected dose per gram of tissue (%ID/g), whereby 1 cm^3 on PET acquisitions were assumed to equal 1 g (n ≥ 3 mice ± SD).
# [1] = SK-N-BE(2)C xenografts, 4 h p.i.
smiles,measurement,setting,value
"N=C(N)NCc1cccc([18F])c1 [^18F-mFBG, ^18F-meta-fluorobenzylguanidine]",Tumour-to-blood ratio,[1],17.69 ± 10.00
same,tumour-to-muscle ratio,[1],6.24 ± 3.64
same,tumour uptake,"SK-N-BE(2)C xenografts, 4 h p.i., n = 5",2.96 ± 1.38 %ID/g
same,"^18F-mFBG biodistribution 4 h p.i., Blood",3 Day AZD2014 (20 mg/kg/day),0.16 ± 0.02 %ID/g
same,"^18F-mFBG biodistribution 4 h p.i., Bone",3 Day AZD2014 (20 mg/kg/day),2.42 ± 2.57 %ID/g
same,"^18F-mFBG biodistribution 4 h p.i., Brown adipose",3 Day AZD2014 (20 mg/kg/day),5.32 ± 1.51^b %ID/g
same,"^18F-mFBG biodistribution 4 h p.i., Heart",3 Day AZD2014 (20 mg/kg/day),3.20 ± 0.43^a %ID/g
same,"^18F-mFBG biodistribution 4 h p.i., Kidney",3 Day AZD2014 (20 mg/kg/day),0.89 ± 0.13 %ID/g
same,"^18F-mFBG biodistribution 4 h p.i., Liver",3 Day AZD2014 (20 mg/kg/day),1.74 ± 0.23 %ID/g
same,"^18F-mFBG biodistribution 4 h p.i., Lungs",3 Day AZD2014 (20 mg/kg/day),1.04 ± 0.12 %ID/g
same,"^18F-mFBG biodistribution 4 h p.i., Muscle",3 Day AZD2014 (20 mg/kg/day),0.55 ± 0.09 %ID/g
same,"^18F-mFBG biodistribution 4 h p.i., Pancreas",3 Day AZD2014 (20 mg/kg/day),1.29 ± 0.51 %ID/g
same,"^18F-mFBG biodistribution 4 h p.i., Small intestine",3 Day AZD2014 (20 mg/kg/day),4.88 ± 1.28 %ID/g
same,"^18F-mFBG biodistribution 4 h p.i., Spleen",3 Day AZD2014 (20 mg/kg/day),2.27 ± 1.06 %ID/g
same,"^18F-mFBG biodistribution 4 h p.i., Tumour",3 Day AZD2014 (20 mg/kg/day),3.95 ± 1.53 %ID/g
same,"^18F-mFBG biodistribution 4 h p.i., Tumour:blood",3 Day AZD2014 (20 mg/kg/day),23.76 ± 6.20
same,"^18F-mFBG biodistribution 4 h p.i., Tumour:muscle",3 Day AZD2014 (20 mg/kg/day),7.06 ± 1.79
same,"^18F-mFBG biodistribution 4 h p.i., Blood",1 day AZD2014 (20 mg/kg/day),0.18 ± 0.04 %ID/g
same,"^18F-mFBG biodistribution 4 h p.i., Bone",1 day AZD2014 (20 mg/kg/day),4.55 ± 2.15^c %ID/g
same,"^18F-mFBG biodistribution 4 h p.i., Brown adipose",1 day AZD2014 (20 mg/kg/day),5.47 ± 0.45^b %ID/g
same,"^18F-mFBG biodistribution 4 h p.i., Heart",1 day AZD2014 (20 mg/kg/day),4.34 ± 2.38 %ID/g
same,"^18F-mFBG biodistribution 4 h p.i., Kidney",1 day AZD2014 (20 mg/kg/day),0.98 ± 0.04 %ID/g
same,"^18F-mFBG biodistribution 4 h p.i., Liver",1 day AZD2014 (20 mg/kg/day),1.63 ± 0.69 %ID/g
same,"^18F-mFBG biodistribution 4 h p.i., Lungs",1 day AZD2014 (20 mg/kg/day),1.27 ± 0.68 %ID/g
same,"^18F-mFBG biodistribution 4 h p.i., Muscle",1 day AZD2014 (20 mg/kg/day),0.59 ± 0.16 %ID/g
same,"^18F-mFBG biodistribution 4 h p.i., Pancreas",1 day AZD2014 (20 mg/kg/day),1.09 ± 0.42 %ID/g
same,"^18F-mFBG biodistribution 4 h p.i., Small intestine",1 day AZD2014 (20 mg/kg/day),4.79 ± 1.21 %ID/g
same,"^18F-mFBG biodistribution 4 h p.i., Spleen",1 day AZD2014 (20 mg/kg/day),2.93 ± 0.82 %ID/g
same,"^18F-mFBG biodistribution 4 h p.i., Tumour",1 day AZD2014 (20 mg/kg/day),3.29 ± 1.01 %ID/g
same,"^18F-mFBG biodistribution 4 h p.i., Tumour:blood",1 day AZD2014 (20 mg/kg/day),17.72 ± 2.35
same,"^18F-mFBG biodistribution 4 h p.i., Tumour:muscle",1 day AZD2014 (20 mg/kg/day),5.74 ± 1.77
same,"^18F-mFBG biodistribution 4 h p.i., Blood",1 day vehicle,0.18 ± 0.02 %ID/g
same,"^18F-mFBG biodistribution 4 h p.i., Bone",1 day vehicle,4.98 ± 2.18^c %ID/g
same,"^18F-mFBG biodistribution 4 h p.i., Brown adipose",1 day vehicle,5.14 ± 0.38^b %ID/g
same,"^18F-mFBG biodistribution 4 h p.i., Heart",1 day vehicle,4.38 ± 1.68 %ID/g
same,"^18F-mFBG biodistribution 4 h p.i., Kidney",1 day vehicle,0.79 ± 0.36 %ID/g
same,"^18F-mFBG biodistribution 4 h p.i., Liver",1 day vehicle,1.94 ± 0.30 %ID/g
same,"^18F-mFBG biodistribution 4 h p.i., Lungs",1 day vehicle,1.22 ± 0.37 %ID/g
same,"^18F-mFBG biodistribution 4 h p.i., Muscle",1 day vehicle,0.60 ± 0.13 %ID/g
same,"^18F-mFBG biodistribution 4 h p.i., Pancreas",1 day vehicle,1.01 ± 0.18 %ID/g
same,"^18F-mFBG biodistribution 4 h p.i., Small intestine",1 day vehicle,4.50 ± 0.24^b %ID/g
same,"^18F-mFBG biodistribution 4 h p.i., Spleen",1 day vehicle,3.19 ± 0.63 %ID/g
same,"^18F-mFBG biodistribution 4 h p.i., Tumour",1 day vehicle,2.76 ± 1.14 %ID/g
same,"^18F-mFBG biodistribution 4 h p.i., Tumour:blood",1 day vehicle,15.27 ± 5.32
same,"^18F-mFBG biodistribution 4 h p.i., Tumour:muscle",1 day vehicle,4.44 ± 0.94
same,"^18F-mFBG biodistribution 4 h p.i., Blood",3 day vehicle,0.18 ± 0.08 %ID/g
same,"^18F-mFBG biodistribution 4 h p.i., Bone",3 day vehicle,1.64 ± 0.45 %ID/g
same,"^18F-mFBG biodistribution 4 h p.i., Brown adipose",3 day vehicle,5.15 ± 0.78^b %ID/g
same,"^18F-mFBG biodistribution 4 h p.i., Heart",3 day vehicle,3.64 ± 0.89 %ID/g
same,"^18F-mFBG biodistribution 4 h p.i., Kidney",3 day vehicle,1.13 ± 0.47 %ID/g
same,"^18F-mFBG biodistribution 4 h p.i., Liver",3 day vehicle,1.96 ± 0.02 %ID/g
same,"^18F-mFBG biodistribution 4 h p.i., Lungs",3 day vehicle,1.15 ± 0.23 %ID/g
same,"^18F-mFBG biodistribution 4 h p.i., Muscle",3 day vehicle,0.53 ± 0.19 %ID/g
same,"^18F-mFBG biodistribution 4 h p.i., Pancreas",3 day vehicle,1.25 ± 0.51 %ID/g
same,"^18F-mFBG biodistribution 4 h p.i., Small intestine",3 day vehicle,5.32 ± 0.11 %ID/g
same,"^18F-mFBG biodistribution 4 h p.i., Spleen",3 day vehicle,2.08 ± 1.29 %ID/g
same,"^18F-mFBG biodistribution 4 h p.i., Tumour",3 day vehicle,2.39 ± 0.10 %ID/g
same,"^18F-mFBG biodistribution 4 h p.i., Tumour:blood",3 day vehicle,14.47 ± 4.61
same,"^18F-mFBG biodistribution 4 h p.i., Tumour:muscle",3 day vehicle,4.89 ± 1.48

# From PMC7708446, “^18F-meta-fluorobenzylguanidine (^18F-mFBG) to monitor changes in norepinephrine transporter expression in response to therapeutic intervention in neuroblastoma models” (Scientific Reports, 2020)
